Assay results published in patent publication US7745450B2, “Pyrazolo[4,3-d]pyrimidines, processes for their preparation and methods for therapy” (Institute of Experimental Botany, priority 2002, dated 2010).
Read-outs that look alike come from different tables or passages of the source.

How the values were obtained:
cdk1/cyclin B (CDC2) = cdk1/cyclin B (CDC2) (Homo sapiens, UniProt P06493); assay: CDK inhibition assay, cdk1/cyclin B (CDC2) kinase, histone phosphorylation; type: biochemical
Procedure: Selected compounds were tested for cdk1/cyclin B and cdk2/cyclin E inhibitory activity to determine the basic relationships between their interaction energy of docked complex and the inhibitory activity. Cdk2/cyclin E complex was produced in SIP insect cells co-infected with appropriate baculoviral construct. The cells were harvested 70 hours post infection in lysis buffer (50 mM Tris 7.4 pH, 150 mM NaCl, 5 mM EDTA, 20 mM NaF, 1% Tween 20, protease inhibitors) for 30 min on ice and the soluble fraction was recovered by centrifugation at 14.000 g for 10 min. The protein extract was stored at −80° C. until use. The final point test system for kinase activity measurement was used to carry out experiments on the kinetics under linear conditions. The assay mixture contained 1 mg/ml histone (Sigma Type III-S), 15 μM ATP, 0.2 μCi [γ-^32P] ATP and tested compound in a final volume of 20 μl, all in reaction buffer: 50 mM Hepes 7.4 pH, 10 mM MgCl2, 5 mM EGTA, 10 mM 2-glycerolphosphate, 1 mM NaF, 1 mM DTT and protease inhibitors. […] The measurement of kinase inhibition employed the digital imaging analyzer BAS 1800. The kinase activity was expressed as a percentage of maximum activity and the IC50 value was determined by graphic analysis. The kinase activity is expressed as a percentage of maximum activity, the apparent inhibition constants are determined by graphic analysis from dose-response curves presented on FIG. 1.

IκB-α kinase = IκB-α kinase inhibition, in vitro kinase assay; type: biochemical
[1] = system: Cytokinin-dependent tobacco callus Nicotiana tabacum L. cv. Wisconsins 38; assay: Tobacco callus bioassay for cytotoxicity (herbicidal activity); type: cell-based; conditions: Nicotiana tabacum, 672 h
Procedure: The novel compounds have also been tested in tobacco callus bioassay for cytotoxicity (herbicidal activity) and induction of cell death. The compounds to be tested were dissolved in dimethylsulfoxide (DMSO) and the solution brought up to 10^−3 M with distilled water. […] Cytokinin-dependent tobacco callus Nicotiana tabacum L. cv. Wisconsins 38 Murashige-Skoog medium, containing per 1 liter: 4 μmol nicotinic acid, 2.4 μmol pyridoxine hydrochloride, 1.2 μmol thiamine, 26.6 μmol glycine, 1.37 μmol glutamine, 1.8 μmol myo.inositol, 30 g of sucrose, 8 g of agar, […] α-naphthylacetic acid and 0.5 μmol 6-benzylaminopurine. Sub cultivation was carried out every three weeks. Fourteen days before the bioassay, the callus tissue was transferred to the media without 6-benzylaminopurine. Compounds were tested with two different concentrations of 6-benzylaminopurine (10^−5 M and 10^−6 M). Inhibitory growth activity was determined from the increase in fresh callus weight after four weeks of cultivation. Five replicates were prepared for each concentration tested and the entire test was repeated at least twice.

MMK1 protein kinase = MMK1 protein kinase (Vicia faba, UniProt A0AAV1B7B8); assay: MMK1 protein kinase activity; type: biochemical
Procedure: Protein extraction and purification of pant CDK by binding to p13^suc1-beads or immunopurification with an antibody specific to the cdc2a-MS protein was carried out as described previously (Bögre et al. 1997, Plant Physiol. 113, 1997, 841-852). The MMK1 protein kinase was purified with a specific antibody from Vicia faba extracts as described by Bögre et al. 1997a, Plant Cell 9, 75-83). Protein kinase activity was measures as described above in Example 20. The quantification of radioactivity incorporated into histone H1 or myelin basic protein was undertaken using phosphoimager (FIG. 2).

[2] = system: CEM (human lymphoblastoid leukemia); assay: In vitro cytotoxic activity, Calcein AM; type: cell-based; conditions: Homo sapiens, 72 h, three days
Procedure: We have been using the following cell lines: HELA (human cervical carcinoma), MCF7 (human breast adenocarcinoma), NIH 3T3 (mouse fibroblasts), HOS (human osteogenic sarcoma), HL 60 (human promyelocytic leukemia), G 361 (human malignant melanoma), K562 (human erythroleukemia), CEM (human lymphoblastoid leukemia). Tested drugs were added to the cell cultures in six different concentration and kept at 37° C. and 5% CO2 for three days. All cell lines were grown in DMEM medium (Gibco BRL) supplemented with 10% (v/v) fetal bovine serum and L-glutamine and maintained at 37° C. in a humidified atmosphere with 5% CO2. 10^4 cells were seeded into each well of 96 well plate, allowed to stabilize for at least 2 h and then tested compounds were added at various concentrations ranging from 200 to 0.2 μM in triplicates. Three days after drug addition Calcein AM solution (Molecular Probes) was added and let to enter the cells for 1 hour. Fluorescence of viable cells was quantified employing Fluoroskan Ascent (Microsystems).

B16 = assay: In vitro cytotoxic activity, Calcein AM; type: cell-based; conditions: Mus musculus, B16, 72 h, three days
[3] = read-out: 10^−5 M BAP IC50, 10^−5 M 6-benzylaminopurine, four weeks
[4] = read-out: 10^−6 M BAP IC50, 10^−6 M 6-benzylaminopurine, four weeks

Sequence of MMK1 protein kinase (A0AAV1B7B8 1-394): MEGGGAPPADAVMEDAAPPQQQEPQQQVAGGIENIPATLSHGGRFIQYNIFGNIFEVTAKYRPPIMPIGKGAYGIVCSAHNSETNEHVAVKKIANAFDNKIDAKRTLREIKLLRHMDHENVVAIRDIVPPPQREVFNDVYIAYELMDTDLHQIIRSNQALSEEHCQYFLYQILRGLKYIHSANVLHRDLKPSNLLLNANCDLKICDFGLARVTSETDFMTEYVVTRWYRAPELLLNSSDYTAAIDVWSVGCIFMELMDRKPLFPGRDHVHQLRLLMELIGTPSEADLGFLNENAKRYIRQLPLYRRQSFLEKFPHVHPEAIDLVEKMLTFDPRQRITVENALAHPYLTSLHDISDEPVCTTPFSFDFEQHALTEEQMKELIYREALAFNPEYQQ
Sequence of cdk1/cyclin B (CDC2) (P06493 whole entry, species assumed): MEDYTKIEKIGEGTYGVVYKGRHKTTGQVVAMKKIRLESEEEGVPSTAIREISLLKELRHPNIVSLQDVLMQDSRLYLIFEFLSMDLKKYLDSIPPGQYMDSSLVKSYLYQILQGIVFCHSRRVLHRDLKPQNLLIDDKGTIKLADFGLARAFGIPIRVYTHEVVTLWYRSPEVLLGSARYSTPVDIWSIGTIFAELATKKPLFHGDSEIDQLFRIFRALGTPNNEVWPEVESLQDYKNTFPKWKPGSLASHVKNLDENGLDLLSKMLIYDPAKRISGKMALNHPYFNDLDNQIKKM
Sequence of cdk1/cyclin B (CDC2) (P14635 whole entry partner, species assumed): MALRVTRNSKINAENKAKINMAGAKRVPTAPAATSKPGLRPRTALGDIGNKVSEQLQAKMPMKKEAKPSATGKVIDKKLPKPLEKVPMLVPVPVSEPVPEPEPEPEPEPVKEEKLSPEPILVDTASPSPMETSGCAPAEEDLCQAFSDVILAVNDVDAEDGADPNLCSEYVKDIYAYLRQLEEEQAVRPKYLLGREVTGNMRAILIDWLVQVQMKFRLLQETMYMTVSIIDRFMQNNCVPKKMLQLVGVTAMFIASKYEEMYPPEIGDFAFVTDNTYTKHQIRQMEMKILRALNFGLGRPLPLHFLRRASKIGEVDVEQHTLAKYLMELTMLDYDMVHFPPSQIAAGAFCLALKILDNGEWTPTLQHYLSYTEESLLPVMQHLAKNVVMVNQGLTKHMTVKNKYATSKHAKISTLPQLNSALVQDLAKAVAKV

SMILES	IC50 (cdk1/cyclin B (CDC2)) [nM]	IC50 (IκB-α kinase) [nM]	IC50 [1, 3] [µM]	IC50 [1, 4] [µM]	IC50 (MMK1 protein kinase) [nM]	GI50 [2] [µM]	GI50 (B16) [µM]
CC(C)c1n[nH]c2c(NCc3ccccc3)nc(NC3CCCCC3N)nc12 (stereo not shown)	10	20	> 50	36			
Cc1n[nH]c2c(Nc3ccc(Cl)c(C(=O)O)c3)nc(NCCO)nc12					300	6.5	7.2
Cc1n[nH]c2c(Nc3ccc(O)c(C(=O)O)c3)nc(NCCO)nc12					700	12.4	15.8
Cc1n[nH]c2c(Nc3ccc(C(=O)O)c(Cl)c3)nc(NCCO)nc12					160	8.9	9.2
Cc1n[nH]c2c(Nc3cc(N)cc(Cl)c3)nc(NCCO)nc12					300	13.4	14.5
Cc1n[nH]c2c(Nc3cccc(Cl)c3)nc(NCCO)nc12					900	8.9	9.8
Cc1n[nH]c2c(NCc3ccc(O)c(O)c3)nc(NCCO)nc12					24000	15.5	18.7
CC(=O)Oc1ccccc1CNc1nc(N[C@@H](CO)C(C)C)nc2c(C(C)C)n[nH]c12					12	8.7	10.9
CC(=O)c1ccccc1CNc1nc(N[C@@H](CO)C(C)C)nc2c(C(C)C)n[nH]c12					50	14.5	18.2
COc1cccc(CNc2nc(N[C@@H](CO)C(C)C)nc3c(C(C)C)n[nH]c23)c1O					15	9.7	9.1
CC(C)c1n[nH]c2c(NCc3ccc(Cl)c(N)c3N)nc(N[C@@H](CO)C(C)C)nc12 [listing 1 of 2 here]					40	8.2	12.4
CC(C)c1n[nH]c2c(NCc3ccc(Cl)c(N)c3N)nc(N[C@@H](CO)C(C)C)nc12 [listing 2 of 2 here]	20	40	15.6	0.4			
CC(=O)c1cccc(CNc2nc(N[C@@H](CO)C(C)C)nc3c(C(C)C)n[nH]c23)c1					5	8.6	9.4
CC(C)c1n[nH]c2c(Nc3cc(N)cc(Cl)c3)nc(N[C@@H](CO)C(C)C)nc12					15	9.5	14.5
CC(C)c1n[nH]c2c(NCc3ccc(O)c(O)c3)nc(N[C@@H](CO)C(C)C)nc12					310	4.2	5.8
CC(C)c1n[nH]c2c(N(C)CCc3ccc(O)c(O)c3)nc(N[C@@H](CO)C(C)C)nc12					150	8.4	9.7
CC(C)c1n[nH]c2c(N(C)Cc3ccc(O)c(O)c3)nc(N[C@@H](CO)C(C)C)nc12					110	3.5	4.8
CC(C)c1n[nH]c2c(NC(CO)c3ccccc3)nc(NC(CO)C(C)C)nc12 (stereo not shown)					150	2.6	4.8
CC(C)c1n[nH]c2c(NCc3ccccc3)nc(N[C@@H](CO)C(C)C)nc12	4	10	> 50	14			
CC[C@H](CO)Nc1nc(NCc2ccccc2OC(C)=O)c2[nH]nc(C(C)C)c2n1	100	200	45	12.4			
CC[C@H](CO)Nc1nc(NCc2c(N)cccc2Cl)c2[nH]nc(C(C)C)c2n1					3.5	4.6	8.3
